Columns and labels:
[1] = system: hen egg white lysozyme (HEL)-specific T cell hybridoma; conditions: cited from earlier work
[2] = Phase Ib trial: local reaction and dose reductions; format: in vivo, human
Procedure: The study was performed as a two-stage safety trial to define the maximum tolerated dose of vaccine as well as the optimal dosing of the vaccine and GM-CSF. In the first stage (FIGS. 1-4), patient dose groups were given escalating amounts of the AE37 peptide. Three patients were assigned to each dosing group and were given the assigned dose of AE37 with a fixed initial dose of GM-CSF of 250 μg. This dose of GM-CSF was chosen based on our previous E75 trials. However, GM-CSF was reduced 50% for subsequent inoculations when local skin reaction exceeded 100 mm. All patients received monthly inoculations for six months. Dosing groups were as follows (AE37 (μg):#inoculations): 100:6, 500:6, 1000:6. Because each patient in the 500:6 group required significant and repeated reductions of GM-CSF, the 1000:6 group was initially inoculated without GM-CSF; GM-CSF was added back if local reaction from the two injection sites were non-confluent.
The hybrid peptide AE37 was mixed with GM-CSF (varying doses) and injected intradermally in the same extremity on a monthly basis. Each dosing group consisted of 3 patients. […] Stage I was designed to identify the maximum tolerated dose of vaccine. Stage II was designed to find the optimal biologic dose. Local toxicity dictated dose adjustments in each stage.
A local reaction ≧100 mm in at least one direction necessitates a reduction of GM-CSF dose for the subsequent vaccination (or reduction in vaccine dose if patient received no GM-CSF). […] FIGS. 1-4 show the dose of GM-CSF and the local reaction in each patient throughout the vaccine series.

[3] = Phase Ib trial: delayed type hypersensitivity (DTH) reaction; format: in vivo, human; conditions: 100 μg AE37 intradermal without GM-CSF
Procedure: A direct in vivo measure of the vaccine's effectiveness is the DTH reaction. Patients were injected intradermally with 100 μg of AE37 (without GM-CSF) prior to the initiation of the vaccination series and one month after the completion of the vaccination regimen in the opposite limb to which they received the vaccine series. Patients were also injected intradermally with a parallel control (sterile saline, same volume) at a site on the back or extremity (opposite side from the vaccination site). The DTH reaction was measured in two dimensions at 48-72 hours using the sensitive ballpoint pen method and compared with control. Pre- and post-vaccination DTH reactions were also compared.

[4] = Phase II trial: DTH reactions; format: in vivo, human; conditions: label = challenge peptide
Source text: (§1) Immunologic response was monitored by measured delayed type hypersensitivity reactions (DTH) and ^3H-thymidine proliferative assays for both hybrid AE37 (LRMK+HER2/neu:776-790) and AE36 (unmodified HER2/neu:776-790) peptides.

[5] = Phase II trial: 3H-thymidine proliferative assays; format: cell-based, human; conditions: label = stimulating peptide
Source text: as §1

[6] = Phase II trial: recurrence of breast cancer; format: in vivo, human; conditions: for Recurrences (patients/total) / Recurrences: median follow up of 13 months; for Recurrences: PG vs AG p=0.08
Procedure: (§2) Toxicity is assessed after each inoculation using National Cancer Institute Common Terminology Criteria for Adverse Events v3.0 (CTCAE). […] Patients are clinically, radiographically, and pathologically monitored for recurrence of BCa.

[7] = in vivo
Source text: The dose escalation safety trial design is for five groups of three patients to receive escalating doses of AE37 with or without GM-CSF in six monthly inoculations. An additional six patients will be vaccinated at the optimal biologic dosing (OBD) in order to complete the 21 patient phase I trial. Enrolled patients were HLA typed, and HLA-A2^− patients and those HLA-A2^+ patients not interested in an alternative vaccine trial were vaccinated.
The National Institutes of Health Common Toxicity Criteria (CTC) (Version 2, Mar. 23, 1998) definitions of adverse events were applied. Both local toxicity at the injection sites as well as systemic toxicity were evaluated in all patients for all inoculations. By design, progression to the second stage occurred only if no significant toxicity occurred in the first stage.
Toxicities were graded per the National Institutes of Health Common Toxicity Criteria and reported on a scale zero to five (Table 3). Local toxicity dictated dose reductions as described above.

[8] = in vivo; remark: listed apart in the source
Procedure: as §2

[9] = Her-2/neu+ breast cancer patients; cited from earlier work
[10] = Phase II trial AE37+GM-CSF versus GM-CSF alone: toxicity (CTCAE v3.0); conditions: six monthly inoculations, AG = GM-CSF alone
Procedure: as §2

PBMC [11] = assay: IFN-γ ELISPOT assays (ex vivo and 7-day) on patient PBMC; format: cell-based, human; conditions: PBMC of patients vaccinated with AE37; label = stimulating peptide
Source text: Blood was drawn from patients prior to receiving each inoculation, at one month (post-vaccination), and at six months (long-term) after completing the series. Forty ml of peripheral blood was drawn into Vacutainer® CPT™ tubes (Becton Dickinson, Franklin Lakes, N.J.) and centrifuged for the isolation of PBMC populations. […]
The human IFN-γ ELISPOT Kit (BD-Pharmingen) was used for the ELISPOT assays. […] The plate was allowed to dry and the number of spots present in each well was counted and analyzed using a CTL-ImmunoSpot Analyzer (C.T.L. Cellular Technology Ltd, OH) (FIGS. 7-10). […]
The PBMC population prepared from the patient's peripheral blood (as described in the previous section) was resuspended at 2×10^6 cells/ml in CM and added as 1 ml aliquots to the 8 wells. […] At the end of the incubation period the plate was removed and the cells/cultures were harvested into separate tubes, spun down, resuspended in CM, and counted. […] The plate was allowed to dry and the number of spots present in each well was counted and analyzed using a CTL-ImmunoSpot Analyzer (C.T.L. Cellular Technology Ltd, OH) (FIGS. 11-14). […]

PBMC [12] = assay: 3H-thymidine proliferation assay on patient PBMC; format: cell-based, human; conditions: PBMC of patients vaccinated with AE37, label = stimulating peptide
Source text: Blood was drawn from patients prior to receiving each inoculation, at one month (post-vaccination), and at six months (long-term) after completing the series. Forty ml of peripheral blood was drawn into Vacutainer® CPT™ tubes (Becton Dickinson, Franklin Lakes, N.J.) and centrifuged for the isolation of PBMC populations. PBMC were washed in HBSS and re-suspended in culture medium (CM) consisting of RPMI-1640 containing 10% FCS (Gemini Bio-Products, Woodland, Calif.) supplemented with 1× penicillin/L-glutamine/streptomycin (Life Technologies, Gaithersburg, Md.) and used for setting up the immunomonitoring protocol/assays which consisted of ELISPOT (IFN-γ secretion) and proliferation (3H-thymidine incorporation) assays. All cultures were maintained in a humidified incubator at 37° C. in 5% CO2.
The PBMC population prepared from the patient's peripheral blood sample was also used for the monitoring of vaccine-specific proliferative activity of the T lymphocytes using a standard radioactive ^3H-thymidine incorporation assay. […] The filtermat was dried and placed in a sample bag with scintillation fluid (BetaScint, Perkin-Elmer) and counted using a scintillation counter (MicroBeta Trilux Scintillation Counter, Perkin-Elmer). The proliferative activity associated with the cultures was measured by the amount of thymidine incorporation which was determined as counts per minute (cpm). […]

[13] = AG group (GM-CSF alone), p>0.05 vs baseline
[14] = PG group (AE37 + GM-CSF), p<0.0001 vs baseline
[15] = PG (AE37 + GM-CSF), at 3, 6, and 12 months after the start of the vaccine series, p<0.015

## LRMK [four-amino-acid Ii-Key moiety, Ii 77-80]
[1]
  Activity retained relative to LRMKLPK: at least 50%

## Ac-LRMKGVGSPYVSRLLGICL-NH2 [AE37]
[2]; first group 100:6 (100 μg AE37 + 250 μg GM-CSF)
  Dose reductions required because of local reaction ≧100 mm: required no reductions in dose
[2]; second group 500:6 (500 μg AE37 + 250 μg GM-CSF initially)
  Dose reductions required because of local reaction ≧100 mm: required a GM-CSF dose reduction by the third vaccine
[2]; third group 1000:6 (1000 μg AE37 initiated without GM-CSF)
  Dose reductions required because of local reaction ≧100 mm: two of the three patients in this group required reduction of vaccine dose on multiple occasions
[3]; before vaccination series
  DTH diameter of local reaction pre vaccine, range: 0-17 mm
[3]; one month after completion of series
  DTH diameter of local reaction post-vaccine, range: 12-106 mm
[3]; one month after completion of series, p<0.0001 vs pre
  DTH mean diameter of local reaction post-vaccine: 62 mm
[3]; read at 48-72 hours, before vaccination series
  DTH mean diameter of local reaction pre vaccine: 4.9 mm
[4]; AG group (GM-CSF alone)
  Median DTH reaction at baseline: 0.0±0.7 cm
[4]; [13]
  Median DTH reaction at 1 month after completion of the primary series: 0 mm
[4]; PG group (AE37 + GM-CSF)
  Median DTH reaction at baseline: 0.0±0.7 cm
[4]; [14]
  Median DTH reaction at 1 month after completion of the primary series: 24.5 ± 2.6 mm
[5]; AG (GM-CSF alone)
  Median proliferation response versus baseline: did not significantly change
[5]; [15]
  Median proliferation response versus baseline: significantly increased from baseline
[6]
  Recurrences (patients/total): 0/49
  Recurrences: 0.0%
[6]; phase II
  Protection against BCa recurrences: protects against BCa recurrences
[7]
  Grade 3 or greater local toxicities: no grade 3 or greater local toxicities
  Local toxicity grade, all patients: grade 1 or 2 local toxicity
  Maximum Toxicity, Local Toxicity Grade 1, number of patients (%): 3 (25)%
  Maximum Toxicity, Local Toxicity Grade 2, number of patients (%): 9 (75%)
  Maximum Toxicity, Local Toxicity Grade 3, number of patients (%): 0 (0%)
  Maximum Toxicity, Systemic Toxicity Grade 1, number of patients (%): 10 (83%)
  Maximum Toxicity, Systemic Toxicity Grade 2, number of patients (%): 0 (0%)
  Maximum Toxicity, Systemic Toxicity Grade 3, number of patients (%): 0 (0%)
  Overall safety and tolerability: safe and well-tolerated with minimal systemic toxicity observed
  Systemic toxicities reported: Only grade 1 systemic toxicities
[8]
  Overall safety: safe

## GP2: immunogenic peptide of Her-2/neu used in clinical trials as vaccine (IISAVVGIL; UniProt P04626 654-662, looked up, fragment)
[9]
  Safety in patients: safe in patients
  Stimulation of antigen specific immunity: effective in stimulating antigen specific immunity

## GM-CSF
[6]
  Recurrences (patients/total): 5/71
  Recurrences: 7.0%
[10]; PG = 500 mcg AE37 + 62.5 or 125 mcg GM-CSF
  Local toxicities: no grade 4-5 local toxicities
[10]; PG = AE37 + GM-CSF
  Systemic toxicities: no grade 3-5 systemic toxicities

## LRMKLPK
[1]
  Potency relative to the original 16-amino acid peptide: greater potency than the original 16-amino acid peptide

## Ac-GVGSPYVSRLLGICL-NH2 [AE36, native HER-2/neu peptide aa776-790, reference compound]
PBMC [11]
  CD4+ T cell response (IFN-γ ELISPOT) to stimulating peptide after vaccination: increased CD4+ T cell response
PBMC [12]
  Peptide-specific proliferation of T cells after vaccination: increased capacity to divide and expand a specific clone
PBMC [12]; listed as native Her-2/neu peptide
  Peptide-specific proliferation of T cells after vaccination: increased CD4+ T cell response
[4]; AG group (GM-CSF alone)
  Median DTH reaction at baseline: 0.0±0.5 cm
[4]; [13]
  Median DTH reaction at 1 month after completion of the primary series: 0 mm
[4]; PG group (AE37 + GM-CSF)
  Median DTH reaction at baseline: 0.0±0.8 cm
[4]; [14]
  Median DTH reaction at 1 month after completion of the primary series: 15.3 ± 2.1 mm
[5]; AG (GM-CSF alone)
  Median proliferation response versus baseline: did not significantly change
[5]; [15]
  Median proliferation response versus baseline: significantly increased from baseline
